According to patent US20250090540A1, “PI3K-ALPHA INHIBITORS AND METHODS OF USE THEREOF” (Relay Therapeutics, Inc., priority 2021, published 2025):

Biological target: H1047R PIK3CA enzyme (Homo sapiens, UniProt P42336, H1047R)
Assay: ADP-Glo Biochemical PIK3CA Kinase Assay
Conditions: not given

Chain of H1047R PIK3CA enzyme (P42336 whole entry H1047R): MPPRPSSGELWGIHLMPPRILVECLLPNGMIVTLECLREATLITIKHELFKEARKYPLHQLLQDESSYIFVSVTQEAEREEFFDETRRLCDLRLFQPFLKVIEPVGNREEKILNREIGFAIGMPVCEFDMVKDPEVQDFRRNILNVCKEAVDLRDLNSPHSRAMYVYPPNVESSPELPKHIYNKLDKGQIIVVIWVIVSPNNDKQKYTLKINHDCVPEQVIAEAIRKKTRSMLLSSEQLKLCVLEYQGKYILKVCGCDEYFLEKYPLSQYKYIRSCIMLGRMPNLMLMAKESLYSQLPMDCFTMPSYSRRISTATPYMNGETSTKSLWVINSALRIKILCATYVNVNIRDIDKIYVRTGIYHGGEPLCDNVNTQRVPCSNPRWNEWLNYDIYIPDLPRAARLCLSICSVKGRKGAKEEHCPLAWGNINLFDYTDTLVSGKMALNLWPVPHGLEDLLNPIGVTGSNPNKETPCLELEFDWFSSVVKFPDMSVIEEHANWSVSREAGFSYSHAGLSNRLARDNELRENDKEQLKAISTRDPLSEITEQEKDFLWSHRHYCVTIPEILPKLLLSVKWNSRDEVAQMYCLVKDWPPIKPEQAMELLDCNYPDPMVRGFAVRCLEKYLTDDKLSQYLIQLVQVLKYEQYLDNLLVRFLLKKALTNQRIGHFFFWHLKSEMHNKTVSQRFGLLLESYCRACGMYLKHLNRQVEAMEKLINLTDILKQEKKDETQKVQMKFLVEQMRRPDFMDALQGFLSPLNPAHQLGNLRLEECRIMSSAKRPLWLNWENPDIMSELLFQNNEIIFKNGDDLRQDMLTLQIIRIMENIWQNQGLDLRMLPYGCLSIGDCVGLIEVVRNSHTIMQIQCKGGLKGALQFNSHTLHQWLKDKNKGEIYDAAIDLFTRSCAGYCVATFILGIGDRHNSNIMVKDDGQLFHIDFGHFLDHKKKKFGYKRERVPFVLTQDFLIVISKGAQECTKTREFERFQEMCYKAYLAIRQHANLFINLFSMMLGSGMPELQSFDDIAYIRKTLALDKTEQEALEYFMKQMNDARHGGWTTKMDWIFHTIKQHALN
Chain of H1047R PIK3CA enzyme (P27986 whole entry partner): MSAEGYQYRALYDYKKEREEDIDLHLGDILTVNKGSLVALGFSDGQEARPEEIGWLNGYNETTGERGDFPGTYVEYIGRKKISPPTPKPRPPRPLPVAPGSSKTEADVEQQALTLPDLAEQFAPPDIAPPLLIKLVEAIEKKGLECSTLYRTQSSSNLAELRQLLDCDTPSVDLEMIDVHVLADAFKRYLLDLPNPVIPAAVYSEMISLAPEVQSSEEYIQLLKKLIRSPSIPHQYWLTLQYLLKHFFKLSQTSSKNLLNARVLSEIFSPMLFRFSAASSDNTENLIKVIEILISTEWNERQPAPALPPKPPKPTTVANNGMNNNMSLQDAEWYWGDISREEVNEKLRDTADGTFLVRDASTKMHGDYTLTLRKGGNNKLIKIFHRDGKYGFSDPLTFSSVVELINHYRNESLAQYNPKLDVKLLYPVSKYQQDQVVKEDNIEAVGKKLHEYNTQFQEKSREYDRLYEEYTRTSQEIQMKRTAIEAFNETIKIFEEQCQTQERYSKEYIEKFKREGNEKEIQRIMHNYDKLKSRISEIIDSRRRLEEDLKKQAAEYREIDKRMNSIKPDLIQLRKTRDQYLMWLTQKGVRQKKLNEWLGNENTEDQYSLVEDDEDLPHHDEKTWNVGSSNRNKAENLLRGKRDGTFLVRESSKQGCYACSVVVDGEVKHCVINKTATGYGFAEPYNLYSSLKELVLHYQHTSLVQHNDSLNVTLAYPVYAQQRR

Row | Structure (SMILES) | IC50
1 | C[C@@H](NC(=O)c1cnc(N2CCCOc3ccccc32)c(NC(=O)c2csc3ccccc23)c1)c1cccnc1 (racemic) [I-278] | 1 to 10 µM
2 | CNC(=O)c1cnc(Nc2ccccc2C)c(NC(=O)c2c(C)sc3ccccc23)c1 [I-328] | 10 to 100 µM
3 | CNC(=O)c1cnc(Nc2ccccc2C)c(NC(=O)c2cc(F)cc3cccnc23)c1 [I-319] | 10 to 100 µM
4 | Cc1ccccc1Nc1ncc(-c2cnn(C)c2)cc1NC(=O)N1CCOc2ccccc21 [I-92] | 10 to 100 µM
5 | Cc1ccccc1Nc1ncc(-c2cnn(C)c2)cc1NC(=O)c1ccc2[nH]ncc2c1 [I-108] | 10 to 100 µM
6 | Cc1ccccc1Nc1ncc(-c2cnn(C)c2)cc1NC(=O)c1cccc2c1cnn2C [I-100] | 10 to 100 µM
7 | Cc1ccccc1Nc1ncc(-c2cnn(C)c2)cc1NC(=O)c1cccc(N(C)C)c1 [I-120] | 10 to 100 µM
8 | Cc1ccccc1Nc1ncc(-c2cnn(C)c2)cc1NC(=O)c1cccc(S(C)(=O)=O)c1 [I-118] | 10 to 100 µM
9 | O=C1CCCC(c2nc3c(F)cc(C(F)(F)F)cc3[nH]2)N1Cc1cc(F)ccc1Cl (centres unmarked) [I-815] | 10 to 100 µM
10 | CNC(=O)c1cnc(Nc2ccccc2C)c(NC(=O)c2cc(F)cc(-c3ccccc3)c2)c1 [I-318] | 10 to 100 µM
11 | Cc1ccccc1Nc1ncc(NS(C)(=O)=O)cc1NC(=O)c1cc(F)cc(C(F)(F)F)c1 [I-62] | 1 to 10 µM
12 | Cc1ccccc1N[C@H]1CCN(C(=O)OC(C)(C)C)C[C@@H]1C(=O)Nc1cc(F)cc(C(F)(F)F)c1 (racemic) [I-156] | 10 to 100 µM
13 | CCn1cccc(C(=O)Nc2cc(C(=O)NC)cnc2Nc2ccccc2C)c1=O [I-284] | 10 to 100 µM
14 | Cc1ccccc1Nc1cc(=O)n(CC(=O)NCC2CC(F)(F)C2)cc1NC(=O)c1csc2ccccc12 [I-363] | 1 to 10 µM
15 | CNC(=O)c1cnc(Nc2ccccc2C)c(NC(=O)c2cncc(C(F)(F)F)c2)c1 [I-388] | 10 to 100 µM
16 | CC1CN(c2ncc(C(=O)N[C@H](C)c3cccnc3)cc2NC(=O)c2csc3ccccc23)c2ccccc2O1 (mixture of isomers) [I-336] | 1 to 10 µM
17 | CNC(=O)c1cnc(Nc2ccccc2C)c(N(S(=O)(=O)c2ccccc2)S(=O)(=O)c2ccccc2)c1 [I-13] | 10 to 100 µM
18 | Cc1ccccc1N[C@H]1CCN(C(=O)C2(O)CC2)C[C@@H]1C(=O)Nc1cc(F)cc(C(F)(F)F)c1 (racemic) [I-228] | 10 to 100 µM
19 | CNC(=O)c1cnc(Nc2ccccc2C)c(NC(=O)c2cc(F)cc(F)c2)c1 [I-141] | 1 to 10 µM
20 | CNC(=O)c1cnc(Nc2ccccc2C)c(NC(=O)c2csc(N)n2)c1 [I-243] | 10 to 100 µM
21 | COc1ccc(C(=O)Nc2cc(-c3cnn(C)c3)cnc2Nc2ccccc2C)cc1 [I-126] | 10 to 100 µM
22 | CNC(=O)c1cnc(Nc2ccccc2C)c(NC(=O)c2coc3ccccc23)c1 [I-44] | 1 to 10 µM
23 | CNC(=O)c1cnc(Nc2ccccc2C)c(NC(=O)c2cc(Cl)ccc2OC)c1 [I-12] | 10 to 100 µM
24 | CNC(=O)c1cnc(NCc2cncn2C)c(NC(=O)c2cc(F)cc(C(F)(F)F)c2)c1 [I-323] | 10 to 100 µM
25 | Cc1ccccc1Nc1ncc(-c2cnn(C)c2)cc1NC(=O)c1cccc(C(F)(F)F)c1 [I-110] | 1 to 10 µM

Row | Structure (SMILES) | IC50
26 | Cc1ccccc1Nc1ncc(-c2cnn(C3CCOCC3)c2)cc1NC(=O)c1cc(F)cc(C(F)(F)F)c1 [I-88] | 0.5 to 1 µM
27 | CC(C)(C)OC(=O)N1CCC(Nc2ncccc2NC(=O)c2csc3ccccc23)CC1 [I-151] | 10 to 100 µM
28 | Cc1ccccc1Nc1ncc(-c2cnn(C)c2)cc1NC(=O)c1cccc2ccncc12 [I-105] | 10 to 100 µM
29 | Cc1ccccc1Nc1ncc(-c2cnn(C)c2)cc1NC(=O)c1cc(F)cc(F)c1 [I-101] | 1 to 10 µM
30 | CNC(=O)c1cnc(Nc2ccccc2C)c(NC(=O)c2cnccc2C(F)(F)F)c1 [I-365] | 10 to 100 µM
31 | COC(=O)c1cnc(Nc2ccccc2C)c(NC(=O)c2cc(F)cc(C(F)(F)F)c2)c1 [I-3] | 1 to 10 µM
32 | Cc1ccccc1Nc1ncc(-c2cnn(C)c2)cc1NC(=O)c1ccc(S(N)(=O)=O)cc1 [I-129] | 10 to 100 µM
33 | CNC(=O)c1cnc(Nc2ccccc2C)c(NC(=O)[C@@H](N)C2CCCCC2)c1 (stereo in doubt) [I-159] | 10 to 100 µM
34 | CNC(=O)c1cnc(Nc2ccccc2C)c(NC(=O)c2ccc3ncccc3c2)c1 [I-183] | 10 to 100 µM
35 | CNC(=O)c1cnc(Nc2ccccc2C)c(NC(=O)[C@]23C[C@H]4C[C@H](C[C@H](C4)C2)C3)c1 [I-171] | 1 to 10 µM
36 | Cc1ccccc1Nc1ncc(C(=O)N2CCOCC2)cc1NC(=O)c1cc(F)cc(C(F)(F)F)c1 [I-22] | 10 to 100 µM
37 | CNC(=O)c1cnc(Nc2ccccc2)c(NC(=O)c2cc(F)cc(C(F)(F)F)c2)c1 [I-33] | 10 to 100 µM
38 | CNC(=O)c1cnc(Nc2ccccc2C#N)c(NC(=O)c2cc(F)cc(C(F)(F)F)c2)c1 [I-38] | 10 to 100 µM
39 | CNC(=O)c1cnc(Nc2ccccc2C)c(NC(=O)c2cc(F)cc(OC(F)F)c2)c1 [I-364] | 1 to 10 µM
40 | CNC(=O)c1cnc(Nc2ccccc2C)c(NC(=O)c2cc3ccccc3o2)c1 [I-40] | 10 to 100 µM
41 | CNC(=O)c1cnc(Nc2ccccc2C)c(NC(=O)C2CCNc3ccccc32)c1 (centres unmarked) [I-386] | 10 to 100 µM
42 | Cc1ccccc1N[C@H]1CCN(C(=O)CC2CCOCC2)C[C@@H]1C(=O)Nc1cc(F)cc(C(F)(F)F)c1 (racemic) [I-254] | 10 to 100 µM
43 | CNC(=O)c1cnc(Nc2ccccc2C)c(NC(=O)c2cccc(C#N)n2)c1 [I-379] | 10 to 100 µM
44 | CNC(=O)c1cnc(Nc2ccccc2C)c(NC(=O)C2(c3ccccc3)CC2(F)F)c1 (centres unmarked) [I-342] | 10 to 100 µM
45 | CNC(=O)c1cnc(Nc2ccccc2C)c(NC(=O)c2ccc(Cl)c(C#N)c2)c1 [I-382] | 10 to 100 µM
46 | CNC(=O)c1cnc(Nc2ccccc2C)c(NC(=O)c2nc3ccccc3n(C)c2=O)c1 [I-368] | 10 to 100 µM
47 | CNC(=O)c1cnc(Nc2cccc(F)c2)c(N)c1 [I-32] | 10 to 100 µM
48 | O=C(Nc1cccc(=O)n1Cc1ccccc1)c1csc2ccccc12 [I-321] | 10 to 100 µM
49 | CNC(=O)c1cnc(Nc2ccccc2C)c(NC(=O)c2ccc(OC(F)(F)F)c(F)c2)c1 [I-391] | 10 to 100 µM

Same assay, conditions: ADP-Glo biochemical PIK3CA kinase assay

Row | Structure (SMILES) | IC50
50 | CNC(=O)c1cnc(Nc2ccccc2C)c(NC(=O)C2CCC(F)(F)CC2)c1 [I-493] | 10 to 100 µM
51 | Cc1ccccc1Nc1ncc(C(=O)NCC2(C#N)CCCC2)cc1NC(=O)c1csc2ccccc12 [I-511] | 10 to 100 µM
52 | CNC(=O)c1cnc(Nc2ccccc2C)c(NC(=O)c2cccc(Cl)c2C)c1 [I-445] | 10 to 100 µM
53 | Cc1ccccc1Nc1nnccc1NC(=O)c1csc2ccccc12 [I-553] | 1 to 10 µM
54 | CNC(=O)c1cnc(Nc2ccccc2C)c(NC(=O)c2noc3ccccc23)c1 [I-671] | 1 to 10 µM
55 | CNC(=O)c1cnc(Nc2ccccc2C)c(NC(=O)c2cn3c(F)cccc3n2)c1 [I-422] | 10 to 100 µM
56 | O=C(Nc1cnccc1-n1cccn1)c1cc(F)cc(C(F)(F)F)c1 [I-781] | 1 to 10 µM
57 | CNC(=O)c1cnc(Nc2ccccc2C)c(NC(=O)Cc2ccc3ncccc3c2)c1 [I-558] | 1 to 10 µM
58 | CC#CCC(C(=O)Nc1cc(C(=O)NC)cnc1Nc1ccccc1C)c1ccccc1 (centres unmarked) [I-446] | 10 to 100 µM
59 | CNC(=O)c1cnc(Nc2c3c(nn2C)CCC3)c(NC(=O)c2csc3ccccc23)c1 [I-743] | 1 to 10 µM
60 | CNC(=O)c1cnc(Nc2ccccc2C)c(NC(=O)c2ccc3ccccc3c2Br)c1 [I-453] | 10 to 100 µM
61 | CCOC(=O)[C@@H]1CC[C@@H](NC(=O)c2cnc(Nc3ccccc3C)c(NC(=O)c3csc4ccccc34)c2)C1 (racemic) [I-654] | 1 to 10 µM
62 | CNC(=O)c1cnc(Nc2ccccc2C)c(NC(=O)CC(C)Oc2ccccc2)c1 (centres unmarked) [I-482] | 10 to 100 µM
63 | CNC(=O)c1cnc(Nc2ccccc2C)c(NC(=O)c2ncsc2C(F)(F)F)c1 [I-492] | 10 to 100 µM
64 | COc1nccc(NC(=O)c2cc(F)cc(C(F)(F)F)c2)c1Nc1ccccc1Cl [I-790] | 1 to 10 µM
65 | CNC(=O)c1cnc(Nc2ccccc2C)c(NC(=O)c2ccc3c(ccn3C)c2)c1 [I-523] | 10 to 100 µM
66 | CNC(=O)c1cnc(Nc2ccccc2C)c(NC(=O)CCc2cc(Cl)ccc2Cl)c1 [I-517] | 10 to 100 µM
67 | Cc1ccccc1[C@H]1NC(=O)C[C@@H]1C(=O)Nc1cc(F)cc(C(F)(F)F)c1 (racemic) [I-669] | 1 to 10 µM
68 | Cc1ccccc1Nc1ncc(C(=O)N[C@H]2CC[C@]3(CCC(=O)N3)CC2)cc1NC(=O)c1csc2ccccc12 [I-617] | 1 to 10 µM

Row | Structure (SMILES) | IC50
69 | CNC(=O)c1cnc(Nc2ccccc2C)c(NC(=O)c2cc3c(Cl)cccn3c2)c1 [I-462] | 10 to 100 µM
70 | CNC(=O)c1cnc(Nc2ccccc2C)c(NC(=O)c2cccc3ccn(C)c23)c1 [I-518] | 10 to 100 µM
71 | CNC(=O)c1cnc(Nc2ccccc2C)c(NC(=O)c2nn(C)c(C3CC3)c2F)c1 [I-439] | 10 to 100 µM
72 | CNC(=O)c1cnc(Nc2ccccc2C)c(NC(=O)c2cccc3c2OC(C)(C)CC3)c1 [I-474] | 10 to 100 µM
73 | Cc1ccccc1Nc1cc(=O)n(CCc2ccncn2)cc1NC(=O)c1csc2ccccc12 [I-769] | 1 to 10 µM
74 | CNC(=O)c1cnc(Nc2ccccc2C)c(NC(=O)Cc2ccc(F)cc2C(F)(F)F)c1 [I-502] | 10 to 100 µM
75 | Nc1cc(-c2ccc(F)cc2)nn1-c1nc2ccccc2[nH]1 [I-792] | 1 to 10 µM
76 | CNC(=O)c1cnc(Nc2ccccc2C)c(NC(=O)c2cc3cccc(F)c3s2)c1 [I-442] | 10 to 100 µM
77 | CNC(=O)c1cnc(Nc2ccccc2C)c(NC(=O)c2nc3ccccn3c2F)c1 [I-415] | 10 to 100 µM
78 | COc1ccc(SC2(C(=O)O)CC(=O)NC2c2ccccc2C)cc1 (centres unmarked) [I-549] | 1 to 10 µM
79 | CCc1nccnc1Nc1ncc(C(=O)NC)cc1NC(=O)c1csc2ccccc12 [I-734] | 1 to 10 µM
80 | Cc1ccccc1Nc1ncc(C(=O)N2CCC(F)C2)cc1NC(=O)c1csc2ccccc12 (centres unmarked) [I-623] | 0.5 to 1 µM
81 | Cc1ccccc1Nc1ncc(-c2ccn[nH]2)cc1NC(=O)c1cc(F)cc(C(F)(F)F)c1 [I-767] | 1 to 10 µM
82 | CNC(=O)c1cnc(Nc2ccccc2C)c(NC(=O)Cc2c[nH]c3cc(F)c(F)cc23)c1 [I-467] | 10 to 100 µM
83 | Cc1nn(C(=O)c2cc(F)cc(C(F)(F)F)c2)c(N)c1-c1ccccc1 [I-779] | 1 to 10 µM
84 | CNC(=O)c1cnc(Nc2ccccc2C)c(NC(=O)Cc2cc(Br)ccc2Cl)c1 [I-595] | 1 to 10 µM
85 | CNC(=O)c1cnc(Nc2ccccc2C)c(NC(=O)c2cc3c(Cl)cc(Cl)cc3[nH]2)c1 [I-507] | 1 to 10 µM
86 | Nc1cc(C(=O)O)cnc1N1CCOc2ccccc21 [I-632] | 1 to 10 µM
